Assay results from publication PMC4882280 (Journal of clinical pharmacology, 2015).
Like-named read-outs stand apart in the source and are kept apart here. Blank lines part the entries; values can stand above or below the compound they belong to.

Assays:
[1] = single oral 25 mg exemestane; for concentration at 24 h: female, human, urine, po, 25 mg, C24 hr (SD), 24-hr urine concentration
[2] = postmenopausal volunteers, single oral 25 mg dose; cited from earlier work
[3] = for AUC(0-t): AUC0-8, plasma; for AUC(0-inf): AUC0-∞ (SD); for Cmax: Cmax (SD); for Tmax: Tmax (SD); for Plasma concentrations at 24 and 72 hours after exemestane administration: lower limit of quantitation 0.2 (exemestane) and 0.1 ng/ml (17-hydroexemestane)
UGT2B17 = details: human liver microsomes UGT2B17(*2/*2) versus UGT2B17(*1/*1), P=0.023; cited from earlier work
[4] = with beta-glucuronidase, UGT2B17 *1/*1 (n = 8)
[5] = with beta-glucuronidase, UGT2B17 *2/*2 (n = 6)
[6] = without beta-glucuronidase, UGT2B17 *1/*1 (n = 8)
[7] = without beta-glucuronidase, UGT2B17 *2/*2 (n = 6)
[8] = female, human, plasma, po, 25 mg, with beta-glucuronidase (total), UGT2B17 *1/*1 (n = 8), single oral 25 mg exemestane
[9] = female, human, plasma, po, 25 mg, with beta-glucuronidase (total), UGT2B17 *2/*2 (n = 6), single oral 25 mg exemestane
[10] = female, human, plasma, po, 25 mg, without beta-glucuronidase (free), UGT2B17 *1/*1 (n = 8), single oral 25 mg exemestane
[11] = female, human, plasma, po, 25 mg, without beta-glucuronidase (free), UGT2B17 *2/*2 (n = 6), single oral 25 mg exemestane
[12] = plasma, range over subjects, single oral 25 mg exemestane

- concentration at 24 h [1, 4]: 1.7 ± 1 ng/mL
- concentration at 24 h [1, 5]: 2.1 ± 1.6 ng/mL
- concentration at 24 h [1, 6]: 1.9 ng/mL
- concentration at 24 h [1, 7]: 2.5 ng/mL
- C24 hr (SD), 24-hr urine concentration [1, 4]: 1.7 (1.0) ng/ml
- C24 hr (SD), 24-hr urine concentration [1, 5]: 2.1 (1.6) ng/ml
- AUC ([3]; female, human, plasma, po, 25 mg): 9.2 to 40.6 ng·h/mL
- AUC(0-t) ([3]; female, human, plasma, po, 25 mg, with beta-glucuronidase (+BG), UGT2B17*1/*1 carriers, single oral 25 mg exemestane): 16.2 ± 3.5 ng·h/mL
- AUC(0-t) ([3]; female, human, plasma, po, 25 mg, with beta-glucuronidase (+BG), UGT2B17*2/*2 carriers, single oral 25 mg exemestane): 15.5 ± 4.2 ng·h/mL
- AUC(0-inf) [3, 8]: 19.8 ng·h/mL
- AUC(0-inf) [3, 9]: 19 ng·h/mL
- AUC(0-inf) [3, 10]: 22.7 ng·h/mL
- AUC(0-inf) [3, 11]: 19.7 ng·h/mL
- Cmax [3, 8]: 4.4 ng/mL
- Cmax [3, 9]: 5.2 ng/mL
- Cmax [3, 10]: 5.6 ng/mL
- Cmax [3, 11]: 5.3 ng/mL
- Tmax [3, 8]: 3.1 h
- Tmax [3, 9]: 1.9 h
- Tmax [3, 10]: 3.1 h
- Tmax [3, 11]: 1.7 h
- Plasma concentrations at 24 and 72 hours after exemestane administration ([3]; single oral 25 mg exemestane): below the lowest limit of quantification
Structure (SMILES): C=C1C[C@@H]2[C@H](CC[C@]3(C)C(=O)CC[C@@H]23)[C@@]2(C)C=CC(=O)C=C12 [Exemestane]
- maximal plasma concentrations (Cmax), range in previous studies [2]: 3.0 to 16.1 ng/mL
- plasma concentrations over time (AUC), range in previous studies [2]: 25.6 to 98.1 ng·h/mL

Structure (SMILES): C=C1C[C@H]2[C@@H]3CC[C@H](O)[C@@]3(C)CC[C@@H]2[C@@]2(C)C=CC(=O)C=C12 [17-hydroexemestane]
- C24 hr (SD), 24-hr urine concentration [1, 4]: 2.3 (1.2) ng/ml
- C24 hr (SD), 24-hr urine concentration ([1]; with beta-glucuronidase, UGT2B17 *1/*1 (n = 8), listed as 17-HEXE): 2.3 ± 1.2 ng/mL
- C24 hr (SD), 24-hr urine concentration [1, 5]: 0.5 (0.3) ng/ml
- C24 hr (SD), 24-hr urine concentration ([1]; with beta-glucuronidase, UGT2B17 *2/*2 (n = 6), listed as 17-HEXE): 0.5 ± 0.3 ng/mL
- C24 hr (SD), 24-hr urine concentration [1, 6]: 0.4 (0.2) ng/ml
- C24 hr (SD), 24-hr urine concentration [1, 7]: 0.4 (0.3) ng/ml
- maximal plasma concentrations (Cmax), range in previous studies [2]: 0.22 to 2.44 ng/mL
- plasma concentrations over time (AUC), range in previous studies [2]: 2.46 to 20.89 ng·h/mL
- difference in the AUC of conjugated 17-hydroexemestane between high and poor expressers ([3]; UGT2B17 *1/*1 vs *2/*2, plasma): ~8 fold
- AUC, range in our pharmacokinetic study [3, 12]: 0.7 to 26.9 ng·h/mL
- Cmax, range in our pharmacokinetic study [3, 12]: 0.1 to 2.7 ng/mL
- AUC0-8 ([3]; plasma, with beta-glucuronidase (+BG), UGT2B17*1/*1 carriers, single oral 25 mg exemestane): 7.3 ± 2.6 ng·h/mL
- Plasma concentrations at 24 and 72 hours after exemestane administration ([3]; single oral 25 mg exemestane): below the lowest limit of quantification
- lower intrinsic clearance (Vmax/Km) (UGT2B17): 36 fold
